{"source": "patent US4871388A", "about": "“Herbicidal liquid concentrate compositions” (priority 1987, dated 1989)", "key": {"[1]": {"experiment": "Solubility of the isomeric mixture at room temperature in various solvents (Table I)", "format": "physicochemical", "source_text": "|at Room Temperature in Various Solvents"}, "[2]": {"experiment": "Dilution in water of solutions of the ester(s) to normal agricultural tank-mix rates", "format": "physicochemical", "conditions": "solvents with >15% solubility; normal agricultural tank-mix rates (1:9-1:99)"}, "[3]": {"experiment": "Initial solubility and dissolution in water of 7.5 g of liquid concentrate compositions utilizing 1 molar equivalent of different acids (Table II)", "conditions": "solvents with greater than 20% by weight solubility; without addition of 0.2 to 1.0 molar equivalent of acids"}}, "data": [{"substance": "isomeric mixture of 6-(5-isopropyl-5-methyl-4-oxo-2-imidazolin-2-yl)-m-toluic acid, methyl ester and 2-(5-isopropyl-5-methyl-4-oxo-2-imidazolin-2-yl)-p-toluic acid, methyl ester", "values": [{"measurement": "limited solubility by weight", "setting": "[1]; in many of the solvents listed in Table I", "result": "≤ 15", "unit": "%"}, {"measurement": "% Solubility by Weight", "setting": "[1]; solvent: 1-Formylpiperidine", "result": "> 15", "unit": "%"}, {"measurement": "% Solubility by Weight", "setting": "[1]; solvent: 1-propanol", "result": "> 15", "unit": "%"}, {"measurement": "% Solubility by Weight", "setting": "[1]; solvent: Amyl acetate", "result": 5, "unit": "%"}, {"measurement": "% Solubility by Weight", "setting": "[1]; solvent: Amyl alcohol (mixed)", "result": "> 15", "unit": "%"}, {"measurement": "% Solubility by Weight", "setting": "[1]; solvent: Anisole", "result": 5, "unit": "%"}, {"measurement": "% Solubility by Weight", "setting": "[1]; solvent: Aromatic 150", "result": 5, "unit": "%"}, {"measurement": "% Solubility by Weight", "setting": "[1]; solvent: Chloroform", "result": "> 15", "unit": "%"}, {"measurement": "% Solubility by Weight", "setting": "[1]; solvent: Diethyl succinate", "result": 5, "unit": "%"}, {"measurement": "% Solubility by Weight", "setting": "[1]; solvent: Dimethyl sulfoxide", "result": "> 15", "unit": "%"}, {"measurement": "% Solubility by Weight", "setting": "[1]; solvent: Dimethylformamide", "result": "> 15", "unit": "%"}, {"measurement": "% Solubility by Weight", "setting": "[1]; solvent: Methanol", "result": "> 15", "unit": "%"}, {"measurement": "% Solubility by Weight", "setting": "[1]; solvent: Methyl cellosolve", "result": "> 15", "unit": "%"}, {"measurement": "% Solubility by Weight", "setting": "[1]; solvent: Methyl oleate", "result": 5, "unit": "%"}, {"measurement": "% Solubility by Weight", "setting": "[1]; solvent: N-methylpyrrolidone", "result": "> 15", "unit": "%"}, {"measurement": "% Solubility by Weight", "setting": "[1]; solvent: Oleic acid", "result": 5, "unit": "%"}, {"measurement": "% Solubility by Weight", "setting": "[1]; solvent: Penn Drake Oil (Kerosene)", "result": 5, "unit": "%"}, {"measurement": "% Solubility by Weight", "setting": "[1]; solvent: Propylene glycol", "result": 5, "unit": "%"}, {"measurement": "% Solubility by Weight", "setting": "[1]; solvent: Tenneco 500/1000", "result": 5, "unit": "%"}, {"measurement": "% Solubility by Weight", "setting": "[1]; solvent: Triethanolamine", "result": 5, "unit": "%"}, {"measurement": "% Solubility by Weight", "setting": "[1]; solvent: Xylene", "result": 5, "unit": "%"}, {"measurement": "precipitate formation on dilution in water", "setting": "[2]", "result": "unsprayable precipitates are formed"}, {"measurement": "dissolution characteristics of the resulting concentrate", "setting": "[3]", "result": "not satisfactory"}]}]}
